# Source: patent publication US20200291018A1, “TAM KINASE INHIBITORS” (SYROS PHARMACEUTICALS, INC., priority 2017, published 2020)
# Experiments:
# TYRO3 = biological target: T1, TYRO3 (Homo sapiens, UniProt Q06418); experiment: TR-FRET kinase activity assay, TYRO3; type: biochemical; conditions: ATP at Km, 60 minutes
# T1 sequence (Q06418 41-890): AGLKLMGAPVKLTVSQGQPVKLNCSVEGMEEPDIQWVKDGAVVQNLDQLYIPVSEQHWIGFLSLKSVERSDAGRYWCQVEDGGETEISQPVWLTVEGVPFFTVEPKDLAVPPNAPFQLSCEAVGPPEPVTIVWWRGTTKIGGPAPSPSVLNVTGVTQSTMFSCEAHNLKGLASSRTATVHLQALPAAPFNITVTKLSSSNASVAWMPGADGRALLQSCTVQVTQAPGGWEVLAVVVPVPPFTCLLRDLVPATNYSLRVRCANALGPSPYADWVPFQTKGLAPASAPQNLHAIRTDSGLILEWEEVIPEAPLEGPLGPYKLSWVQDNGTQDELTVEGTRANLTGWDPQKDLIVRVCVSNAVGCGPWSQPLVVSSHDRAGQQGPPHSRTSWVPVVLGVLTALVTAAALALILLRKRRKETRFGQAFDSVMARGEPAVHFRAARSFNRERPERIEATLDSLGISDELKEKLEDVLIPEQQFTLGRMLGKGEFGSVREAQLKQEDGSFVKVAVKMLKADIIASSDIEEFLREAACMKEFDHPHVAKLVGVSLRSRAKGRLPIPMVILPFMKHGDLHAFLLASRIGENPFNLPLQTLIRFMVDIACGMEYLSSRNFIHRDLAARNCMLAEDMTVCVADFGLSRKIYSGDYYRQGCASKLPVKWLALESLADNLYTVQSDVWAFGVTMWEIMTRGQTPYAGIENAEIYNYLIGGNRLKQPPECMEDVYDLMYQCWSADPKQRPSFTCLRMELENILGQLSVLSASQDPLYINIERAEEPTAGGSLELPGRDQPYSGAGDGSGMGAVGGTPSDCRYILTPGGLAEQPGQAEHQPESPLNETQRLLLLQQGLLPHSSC
# Method: (§1) IC50 values for compound inhibition of AXL, FLT3, MERTK and TYRO3 activity were determined using a TR-FRET activity assay. A peptide substrate with a fluorescent label is phosphorylated on a tyrosine by each enzyme, where the now phosphorylated product is bound by a Europium-labeled antibody specific to that phosphorylation site. The proximity between the antibody and the substrate gives a signal known as TR-FRET. As the enzyme is inhibited by compound, less phosphorylated peptide product is made, causing a decrease in overall signal.
# (§2) Activity assays were performed in a 384-well, small volume, black microplates in an active enzyme volume of 10 uL and final developed volume of 20 uL. Final assay conditions are 50 mM HEPES pH 7.5, 10 mM MgCl2, 1 mM EGTA, 0.01% Brij 35 and 1 mM DTT, all at RT. Enzyme, substrate-labeled peptide and compound are mixed, and then the reaction is initiated with the addition of ATP at Km concentration for each enzyme. The reaction is allowed to run 60 minutes and then quenched with a 12.5 mM EDTA (ethylenediamine tetraacetic acid) solution. The plate is then developed with the addition of Europium-labeled antibody for a final volume of 20 uL and is then incubated for 30 minutes in darkness. Plates are read in a PHERASTAR® plate reader. Data are analyzed in GraphPad PRISM.
# MERTK = biological target: T2, MERTK (Homo sapiens, UniProt Q12866); experiment: TR-FRET kinase activity assay, MERTK; type: biochemical; conditions: for IC50: TR-FRET activity assay, ATP at Km, 60 minutes, read-out: Mer IC50; for Mer/Flt3 ratio (FLT3 IC50/Mer IC50): ratio calculated as FLT3 IC50/Mer IC50
# T2 sequence (Q12866 21-999): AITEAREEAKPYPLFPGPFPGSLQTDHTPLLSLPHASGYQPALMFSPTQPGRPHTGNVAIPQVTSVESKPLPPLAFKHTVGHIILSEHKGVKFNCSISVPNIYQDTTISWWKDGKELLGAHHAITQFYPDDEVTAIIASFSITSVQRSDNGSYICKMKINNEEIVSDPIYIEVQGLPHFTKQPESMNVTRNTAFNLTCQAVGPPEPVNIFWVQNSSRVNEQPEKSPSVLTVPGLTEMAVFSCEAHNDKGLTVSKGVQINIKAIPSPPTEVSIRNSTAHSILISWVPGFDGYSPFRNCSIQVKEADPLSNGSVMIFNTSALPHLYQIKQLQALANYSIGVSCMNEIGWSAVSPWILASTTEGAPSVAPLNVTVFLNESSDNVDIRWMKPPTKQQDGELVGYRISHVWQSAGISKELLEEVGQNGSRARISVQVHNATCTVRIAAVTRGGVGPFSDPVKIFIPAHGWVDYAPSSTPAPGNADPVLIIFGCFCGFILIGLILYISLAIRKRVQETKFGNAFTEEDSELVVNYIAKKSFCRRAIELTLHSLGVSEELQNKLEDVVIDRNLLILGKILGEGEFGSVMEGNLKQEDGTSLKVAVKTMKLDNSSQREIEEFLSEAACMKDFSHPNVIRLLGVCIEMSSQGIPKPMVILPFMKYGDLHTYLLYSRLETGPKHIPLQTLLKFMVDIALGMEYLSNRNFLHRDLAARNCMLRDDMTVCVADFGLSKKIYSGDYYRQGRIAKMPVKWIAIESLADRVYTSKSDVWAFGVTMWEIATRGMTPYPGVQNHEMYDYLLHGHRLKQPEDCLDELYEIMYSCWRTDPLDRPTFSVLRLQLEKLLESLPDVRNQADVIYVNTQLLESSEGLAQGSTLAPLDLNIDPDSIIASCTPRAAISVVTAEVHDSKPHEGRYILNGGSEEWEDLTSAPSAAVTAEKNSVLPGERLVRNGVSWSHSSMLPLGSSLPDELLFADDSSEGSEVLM
# Method: as §1, §2
IC50 (TYRO3) [nM],IC50 (MERTK) [nM],Mer/Flt3 ratio (FLT3 IC50/Mer IC50) (MERTK),SMILES
100 to 1000,≤ 100,+++ (a ratio of >100),CC[C@H](C)Nc1ncc2c(OC3CCN(C)CC3)ncc([C@H]3CC[C@H](O)CC3)c2n1 [Compound 221]
≤ 100,≤ 100,++ (a ratio of between 10 and 100),CC[C@H](C)Nc1ncc2c(N3CC[C@@H](N(C)C)C3)ncc([C@H]3CC[C@H](O)CC3)c2n1 [Compound 222]
100 to 1000,≤ 100,++ (a ratio of between 10 and 100),CC[C@H](C)Nc1ncc2c(OC3C[C@H]4CC[C@@H](C3)O4)ncc([C@H]3CC[C@H](O)CC3)c2n1 (stereo partly drawn) [Compound 223]
100 to 1000,≤ 100,++ (a ratio of between 10 and 100),O[C@H]1CC[C@H](c2cnc(OC3CCNCC3)c3cnc(NCCC(F)(F)F)nc32)CC1 [Compound 224]
≤ 100,≤ 100,++ (a ratio of between 10 and 100),CC[C@H](C)Nc1ncc2c(=O)n(C3CCOCC3)cc([C@H]3CC[C@H](O)CC3)c2n1 [Compound 225]
100 to 1000,≤ 100,+++ (a ratio of >100),CC[C@H](C)Nc1ncc2c(OC3CCOCC3)ncc([C@H]3CC[C@H](O)CC3)c2n1 [Compound 226]
≤ 100,≤ 100,+++ (a ratio of >100),CC[C@H](C)Nc1ncc2c(OC3CC(C)(C)N(C)C(C)(C)C3)ncc([C@H]3CC[C@H](O)CC3)c2n1 [Compound 227]
100 to 1000,≤ 100,++ (a ratio of between 10 and 100),CCC(CC)Nc1ncc2c(OC3CCNCC3)ncc([C@H]3CC[C@H](O)CC3)c2n1 [Compound 228]
100 to 1000,≤ 100,++ (a ratio of between 10 and 100),CC[C@H](C)Nc1ncc2c(O[C@H]3CC[C@H](O)CC3)ncc([C@H]3CC[C@H](O)CC3)c2n1 [Compound 229]
100 to 1000,≤ 100,+++ (a ratio of >100),CC[C@H](C)Nc1ncc2c(Cl)ncc([C@H]3CC[C@H](O)CC3)c2n1 [Compound 230]
≤ 100,≤ 100,+++ (a ratio of >100),CC[C@H](C)NC1=NC2C([C@H]3CC[C@H](O)CC3)=CN(C(C)C)C(=O)C2C=N1 (stereo partly drawn) [Compound 231]
100 to 1000,100 to 1000,+ (a ratio of >2.0 and <10),O[C@H]1CC[C@H](c2cnc(OC3CCNCC3)c3cnc(N[C@@H]4CCCOC4)nc32)CC1 [Compound 232]
≤ 100,≤ 100,+++ (a ratio of >100),CC[C@H](C)Nc1ncc2c(OC3CCN(S(C)(=O)=O)CC3)ncc([C@H]3CC[C@H](O)CC3)c2n1 [Compound 233]
≤ 100,≤ 100,+++ (a ratio of >100),CC[C@H](C)Nc1ncc2c(=O)n(C3CCN(S(C)(=O)=O)CC3)cc([C@H]3CC[C@H](O)CC3)c2n1 [Compound 234]
≤ 100,≤ 100,+++ (a ratio of >100),CCOc1ncc([C@H]2CC[C@H](O)CC2)c2nc(N[C@@H](C)CC)ncc12 [Compound 235]
100 to 1000,≤ 100,+ (a ratio of >2.0 and <10),CCOc1ncc(CC2CCNCC2)c2nc(N[C@@H](C)CC)ncc12 [Compound 236]
1000 to 10000,≤ 100,+++ (a ratio of >100),CC[C@H](C)Nc1ncc2c(OC3C[C@H]4CC[C@@H](C3)O4)ncc([C@H]3CC[C@H](O)CC3)c2n1 (stereo partly drawn) [Compound 237]
1000 to 10000,≤ 100,++ (a ratio of between 10 and 100),CC[C@H](C)Nc1ncc2c(NC34CCC(O)(CC3)CC4)ncc([C@H]3CC[C@H](O)CC3)c2n1 [Compound 238]
≤ 100,≤ 100,+++ (a ratio of >100),CC[C@H](C)Nc1ncc2c(OC3CCN(C)CC3)ncc([C@H]3CC[C@H](O)CC3)c2n1 [Compound 239]
100 to 1000,≤ 100,+++ (a ratio of >100),CC[C@H](C)Nc1ncc2c(C3CCN(C)CC3)ncc([C@H]3CC[C@H](O)CC3)c2n1 [Compound 240]
≤ 100,100 to 1000,++ (a ratio of between 10 and 100),CC[C@H](C)Nc1ncc2c(OC(CO)CO)ncc([C@H]3CC[C@H](O)CC3)c2n1 [Compound 241]
100 to 1000,100 to 1000,++ (a ratio of between 10 and 100),COC[C@H](C)Nc1ncc2c(OC3CCOCC3)ncc(C3=CCC4(CC3)OCCO4)c2n1 [Compound 242]
1000 to 10000,≤ 100,+++ (a ratio of >100),COC[C@H](C)Nc1ncc2c(OC3CCOCC3)ncc(C3CCC4(CC3)OCCO4)c2n1 [Compound 243]
1000 to 10000,≤ 100,+++ (a ratio of >100),CCc1ncc([C@H]2CC[C@H](O)CC2)c2nc(N[C@@H](C)CC)ncc12 [Compound 244]
≤ 100,≤ 100,+++ (a ratio of >100),CC[C@H](C)Nc1ncc2c(OCC(F)(F)F)ncc([C@H]3CC[C@H](O)CC3)c2n1 [Compound 245]
≤ 100,≤ 100,+++ (a ratio of >100),CC[C@H](C)Nc1ncc2c(OC3CC(C)(C)NC(C)(C)C3)ncc([C@H]3CC[C@H](O)CC3)c2n1 [Compound 246]
100 to 1000,100 to 1000,++ (a ratio of between 10 and 100),CC[C@H](C)Nc1ncc2c(OC3C[C@@H](C)O[C@@H](C)C3)ncc([C@H]3CC[C@H](O)CC3)c2n1 (stereo partly drawn) [Compound 247]
≤ 100,≤ 100,+++ (a ratio of >100),CC[C@H](C)Nc1ncc2c(=O)n(CC34CCC(N)(CC3)CC4)cc([C@H]3CC[C@H](O)CC3)c2n1 [Compound 251]
100 to 1000,1000 to 10000,++ (a ratio of between 10 and 100),CCOc1ncc(CC2CCN(C)CC2)c2nc(N[C@@H](C)CC)ncc12 [Compound 253]
